molecular target: T1, HCV polymerase (NS5B570n-Con1) (Hepatitis C virus genotype 1b, UniProt Q9WMX2); assay: HCV NS5B RNA polymerase activity assay; type: biochemical, HCV Con1 strain; settings: IC50 NS5B polymerase assay, Table I
T1 construct: contains a 21 amino acid deletion at the C-terminus relative to the full-length HCV polymerase; 6-histidine (N); made in house; host or cells: E. coli BL21 (DE) pLysS
Method: The enzymatic activity of HCV polymerase (NS5B570n-Con1) was measured as the incorporation of radiolabeled nucleotide monophosphates into acid insoluble RNA products. Unincorporated radiolabeled substrate was removed by filtration and scintillant was added to the washed and dried filter plate containing radiolabeled RNA product. The amount of RNA product generated by NS5B570-Con1 at the end of the reaction was directly proportional to the amount of light emitted by the scintillant.
The N-terminal 6-histidine tagged HCV polymerase, derived from HCV Con1 strain, genotype 1b (NS5B570n-Con1) contains a 21 amino acid deletion at the C-terminus relative to the full-length HCV polymerase and was purified from E. coli strain BL21 (DE) pLysS. The construct, containing the coding sequence of HCV NS5B Con1 (GenBank accession number AJ242654) was inserted into the plasmid construct pETI 7b, downstream of a T7 promoter expression cassette and transformed into E. coli. A single colony was grown overnight as a starter culture and later used inoculate 10 L of LB media supplemented with 100 μg/mL ampicillin at 37° C. Protein expression was induced by the addition of 0.25 mM isopropyl-β-D-thiogalactopyranoside (IPTG) when optical density at […] of the culture was between 0.6 and 0.8 and cells were harvested after 16 to 18 h at 30° C. NS5B570n-Con1 was purified to homogeneity using a three-step protocol including subsequent column chromatography on Ni-NTA, SP-Sepharose HP and Superdex 75 resins.
Each 50 μl enzymatic reaction contained 20 nM RNA template derived from the complementary sequence of the Internal Ribosome Entry Site (cIRES), 20 nM NS5B570n-Con1 enzyme, 0.5 μCi of tritiated UTP (Perkin Elmer catalog no. TRK-412; specific activity: 30 to 60 Ci/mmol; stock solution concentration from 7.5×10^-5 M to 20.6×10^-6 M), 1 μM each ATP, CTP, and GTP, 40 mM Tris-HCl pH 8.0, 40 mM NaCl, 4 mM DTT (dithiothreitol), 4 mM MgCl2, and 5 μl of compound serial diluted in DMSO. Reaction mixtures were assembled in 96-well filter plates (cat #MADVN0B, Millipore Co.) and incubated for 2 h at 30° C. Reactions were stopped by addition of 10% final (v/v) trichloroacetic acid and incubated for 40 min at 4° C. Reactions were filtered, washed with 8 reaction volumes of 10% (v/v) trichloroacetic acetic acid, 4 reaction volumes of 70% (v/v) ethanol, air dried, and 25 μl of scintillant (Microscint 20, Perkin-Elmer) was added to each reaction well.
The amount of light emitted from the scintillant was converted to counts per minute (CPM) on a Topcount® plate reader (Perkin-Elmer, Energy Range: Low, Efficiency Mode Normal, Count Time: 1 min, Background Subtract: none, Cross talk reduction: Off).
Data was analyzed in Excel® (Microsoft®) and ActivityBase® (idbsg). The reaction in the absence of enzyme was used to determine the background signal, which was subtracted from the enzymatic reactions. Positive control reactions were performed in the absence of compound, from which the background corrected activity was set as 100% polymerase activity. All data was expressed as a percentage of the positive control. The compound concentration at which the enzyme-catalyzed rate of RNA synthesis was reduced by 50% (IC50) was calculated by fitting
[formula] equation (t) to the data.where “Y” corresponds to the relative enzyme activity (in %), “% Min” is the residual relative activity at saturating compound concentration, “% Max” is the relative maximum enzymatic activity, “X” corresponds to the compound concentration, and “S” is the Hill coefficient (or slope).

| Structure (SMILES) | IC50 |
| --- | --- |
| CNC(=O)c1c(-c2ccc(Oc3ccc(F)cc3)nc2)oc2cc(N(CCO)S(C)(=O)=O)c(OC)cc12 [Compound I-125, 2-[6-(4-Fluoro-phenoxy)-pyridin-3-yl]-6-[(2-hydroxy-ethyl)-methanesulfonyl-amino]-5-methoxy-benzofuran-3-carboxylic acid methylamide] | 490 nM |
| CNC(=O)c1c(-c2ccc(Nc3cccnc3)cc2)oc2cc(N(CCO)S(C)(=O)=O)c(OC)cc12 [Compound I-122] | 2050 nM |
| CNC(=O)c1c(-c2ccc(Nc3ccc(F)cc3)nc2)oc2cc(N(CCO)S(C)(=O)=O)c(OC)cc12 [Compound I-126, 2-[6-(4-Fluoro-phenylamino)-pyridin-3-yl]-6-[(2-hydroxy-ethyl)-methanesulfonyl-amino]-5-methoxy-benzofuran-3-carboxylic acid methylamide] | 468 nM |
| CNC(=O)c1c(-c2ccc(Nc3ccc(Cl)cc3)cc2)oc2cc(N(CCO)S(C)(=O)=O)c(OC(C)C)cc12 [Compound I-30] | 815 nM |
| CNC(=O)c1c(-c2ccc(Oc3ccc(F)cc3)cc2)oc2cc(N(CC3(C)COC3)S(C)(=O)=O)c(C3CC3)cc12 [Compound I-87] | 134 nM |
| CNC(=O)c1c(-c2ccc(Oc3ccccc3)cc2)oc2cc(C(C)=O)c(C3CC3)cc12 [Compound I-86] | 362 nM |
| CNC(=O)c1c(-c2ccc(Nc3ccc(F)cc3)cc2)oc2cc(N(CCO)S(C)(=O)=O)c(OC)cc12 [Compound I-2] | 100 nM |
| CNC(=O)c1c(-c2ccc(Nc3cccc(OC)c3)cc2)oc2cc(N(CCO)S(C)(=O)=O)c(OC)cc12 [Compound I-7] | 136 nM |
| CNC(=O)c1c(-c2ccc(Oc3ccc(F)cc3)cc2)oc2cc(N(CCS(N)(=O)=O)S(C)(=O)=O)c(C3CC3)cc12 [Compound I-119, 5-Cyclopropyl-2-[4-(4-fluoro-phenoxy)-phenyl]-6-[methanesulfonyl-(2-sulfamoyl-ethyl)-amino]-benzofuran-3-carboxylic acid methylamide] | 14 nM |
| CNC(=O)c1c(-c2ccc(Oc3ccc(F)cc3)cc2)oc2cc(N(CCO)S(C)(=O)=O)c(OC)cc12 [Compound I-8] | 57 nM |
| CNC(=O)c1c(-c2ccc(Oc3ccccc3Cl)cc2)oc2cc(N(CCO)S(C)(=O)=O)c(OC(C)C)cc12 [Compound I-49] | 143 nM |
| CNC(=O)c1c(-c2ccc(Nc3ccc(F)cc3F)cc2)oc2cc(N(CCO)S(C)(=O)=O)c(OC)cc12 [Compound I-14] | 24 nM |
| CNC(=O)c1c(-c2ccc(Oc3ccc(F)cc3)cc2)oc2cc(N(C3CCNC3)S(C)(=O)=O)c(C3CC3)cc12 (centres unmarked) [Compound I-91, 5-Cyclopropyl-2-[4-(4-fluoro-phenoxy)-phenyl]-6-(methanesulfonyl-pyrrolidin-3-yl-amino)-benzofuran-3-carboxylic acid methylamide] | 24 nM |
| CNC(=O)c1c(-c2ccc(Oc3ccc(F)cc3)cc2)oc2cc(N(CCC[S+](C)[O-])S(C)(=O)=O)c(C3CC3)cc12 (centres unmarked) [Compound I-121] | 5 nM |
| CNC(=O)c1c(-c2ccc(Nc3ccccc3)cc2)oc2cc(N(CCO)S(C)(=O)=O)c(OC(C)C)cc12 [Compound I-28, 6-[(2-Hydroxy-ethyl)-methanesulfonyl-amino]-5-isopropoxy-2-(4-phenylamino-phenyl)-benzofuran-3-carboxylic acid methylamide] | 42 nM |
| CNC(=O)c1c(-c2ccc(Oc3ccc(F)cc3)cc2)oc2cc(N(CC(N)=O)S(C)(=O)=O)c(C3CC3)cc12 [Compound I-73] | 56 nM |
| CNC(=O)c1c(-c2ccc(Oc3ccc(F)cc3)cc2)oc2cc(N(CC[S+](C)[O-])S(C)(=O)=O)c(C3CC3)cc12 (centres unmarked) [Compound I-120, 5-Cyclopropyl-2-[4-(4-fluoro-phenoxy)-phenyl]-6-[(2-methanesulfinyl-ethyl)-methanesulfonyl-amino]-benzofuran-3-carboxylic acid methylamide] | 19 nM |
| CNC(=O)c1c(-c2ccc(Oc3ccccc3)cc2)oc2cc(C3CCCN3)c(C3CC3)cc12 (centres unmarked) [Compound I-90, 5-5-Cyclopropyl-2-(4-phenoxy-phenyl)-6-pyrrolidin-2-yl-benzofuran-3-carboxylic acid methylamideyclopropyl-2-(4-phenoxy-phenyl)-6-pyrrolidin-2-yl-benzofuran-3-carboxylic acid methylamide] | 254 nM |

| Structure (SMILES) | IC50 |
| --- | --- |
| CNC(=O)c1c(-c2ccc(Nc3ccc(C(F)(F)F)cc3)cc2)oc2cc(N(CCO)S(C)(=O)=O)c(OC)cc12 [Compound I-11] | 1950 nM |
| CNC(=O)c1c(-c2ccc(Oc3ccccc3)cc2)oc2cc(N(CCO)S(C)(=O)=O)c(OC)cc12 [Compound I-4, 6-[(2-Hydroxy-ethyl)-methanesulfonyl-amino]-5-methoxy-2-(4-phenoxy-phenyl)-benzofuran-3-carboxylic acid methylamide] | 62 nM |
| CCc1cc2c(C(=O)NC)c(-c3ccc(Oc4ccc(F)cc4)cc3)oc2cc1N(CCO)S(C)(=O)=O [Compound I-51, 5-Ethyl-2-[4-(4-fluoro-phenoxy)-phenyl]-6-[(2-hydroxy-ethyl)-methanesulfonyl-amino]-benzofuran-3-carboxylic acid methylamide] | 88 nM |
| CNC(=O)c1c(-c2ccc(Oc3ccc(F)cc3)cc2)oc2cc(C(C)(C)O)c(OC)cc12 [Compound I-103] | 37 nM |
| CNC(=O)c1c(-c2ccc(Oc3ccccc3F)cc2)oc2cc(N(CCO)S(C)(=O)=O)c(OC)cc12 [Compound I-9] | 85 nM |
| CNC(=O)c1c(-c2ccc(Oc3ccc(F)cc3)cc2)oc2cc(N(C3CNC3)S(C)(=O)=O)c(C3CC3)cc12 [Compound I-75] | 300 nM |
| CNC(=O)c1c(-c2ccc(Nc3cccc(F)c3F)cc2)oc2cc(N(CCO)S(C)(=O)=O)c(OC)cc12 [Compound I-21] | 59 nM |
| CNC(=O)c1c(-c2ccc(Nc3ccc(F)c(Cl)c3)cc2)oc2cc(N(CCO)S(C)(=O)=O)c(OC)cc12 [Compound I-15] | 82 nM |
| CNC(=O)c1c(-c2ccc(Nc3ccc(F)c(F)c3)cc2)oc2cc(N(CCO)S(C)(=O)=O)c(OC)cc12 [Compound I-10] | 65 nM |
| CNC(=O)c1c(-c2ccc(Nc3ccc(Cl)cc3)cc2)oc2cc(N(CCO)S(C)(=O)=O)c(OC)cc12 [Compound I-3] | 214 nM |
| CNC(=O)c1c(-c2ccc(Oc3ccc(F)cc3)cc2)oc2cc(N(CCCS(N)(=O)=O)S(C)(=O)=O)c(C3CC3)cc12 [Compound I-118] | 7 nM |
| CNC(=O)c1c(-c2ccc(Oc3ccccc3)cc2)oc2cc(-c3c(C)noc3C)c(C3CC3)cc12 [Compound I-85, 5-Cyclopropyl-6-(3,5-dimethyl-isoxazol-4-yl)-2-(4-phenoxy-phenyl)-benzofuran-3-carboxylic acid methylamide] | 344 nM |
| CCCc1cc2c(C(=O)NC)c(-c3ccc(Oc4ccccc4F)cc3)oc2cc1N(CCO)S(C)(=O)=O [Compound I-65, 2-[4-(2-Fluoro-phenoxy)-phenyl]-6-[(2-hydroxy-ethyl)-methanesulfonyl-amino]-5-propyl-benzofuran-3-carboxylic acid methylamide] | 21 nM |
| CNC(=O)c1c(-c2ccc(Oc3ccc(Cl)cc3)cc2)oc2cc(N(CCO)S(C)(=O)=O)c(OC(C)C)cc12 [Compound I-27] | 70 nM |
| CNC(=O)c1c(-c2ccc(Oc3cccc(Cl)c3)cc2)oc2cc(N(CCO)S(C)(=O)=O)c(OC(C)C)cc12 [Compound I-46] | 51 nM |
| CNC(=O)c1c(-c2ccc(Nc3ccc(C#N)cc3)cc2)oc2cc(N(CCO)S(C)(=O)=O)c(OC)cc12 [Compound I-13] | 1840 nM |
| CNC(=O)c1c(-c2ccc(Nc3ccccc3F)cc2)oc2cc(N(CCO)S(C)(=O)=O)c(OC(C)C)cc12 [Compound I-34] | 64 nM |
